Source: patent publication US20100280056A1, “IDENTIFICATION OF SUBJECTS LIKELY TO BENEFIT FROM STATIN THERAPY” (The Govt. of the U. S. as Represented by the Secretary of …, priority 2007, published 2010)

Tested on: colon cancer cell lines
Experiment: Total cholesterol content of colon cancer cell lines with and without atorvastatin (Cholesterol/Cholesteryl Ester Quantification Kit)
Format: cell-based
Settings: 25 μM atorvastatin, 24 hours, serum-free medium; cell lines with rs12654264 A allele compared to T allele (FIG. 4)
Experimental: Microsatellite stable (MSS) colon cancer cell lines (SW480, SW620, HT29, WiDr, and SW1417) were cultured in RPMI (supplemented with 10% Fetal Bovine Serum, 100 IU/mL of Penicillin, 100 IU/mL of Streptomycin, and 1× Non-Essential Amino Acid) at 37° C. in an atmosphere of 5% CO2. The cells were trypsinized and washed with PBS twice. […] The cholesterol level of each colon cancer line was measured using Cholesterol/Cholesteryl Ester Quantification Kit from Abcam (Cambridge, Mass.). Cells were plated into 6-well plates to reach approximate confluency of 70%. After overnight incubation, the cells were treated with 25 μM atorvastatin diluted in serum-free DMEM/F12 50:50 (supplemented with 100 IU/mL of Penicillin, 100 IU/mL of Streptomycin, and 1× Non-Essential Amino Acid) for 24 hours at 37° C., 5% CO2. After treatment, the cells were trypsinized and counted to 1×10^6 cells. The cells were pelleted, washed with PBS twice, and resuspended in 200 μl of pure chloroform with 1% Triton® X-100. The cell suspension was vortexed for 15 seconds, and centrifuged at maximum speed for 10 minutes. The lower (organic) phase was collected and air dried at 50° C., followed by vacuum drying for 30 minutes to remove the chloroform. The dried lipids were resuspended with 100 μl of the Cholesterol Reaction Buffer provided in the kit, and vortexed for 5 minutes vigorously at room temperature. […]

Compound: CC(C)c1c(C(=O)Nc2ccccc2)c(-c2ccccc2)c(-c2ccc(F)cc2)n1CC[C@@H](O)C[C@@H](O)CC(=O)O [atorvastatin]
- statin-dependent cholesterol reduction: significantly greater statin-dependent cholesterol reduction
